For three compounds, IC50 and EC50 results are on record in paper PMC9860315, “Neuronally produced betaine acts via a ligand-gated ion channel to control behavioral states” (Proceedings of the National Academy of Sciences of the …, 2022).

Broadly, the IC50 is the point on the concentration scale where inhibition reaches its midpoint. Higher therefore signals lower potency. Usually EC50 stands for the concentration needed to bring the measured effect to its halfway point. Low readings indicate an effect from little substance, high ones a need for much substance.

Each structure is given as a SMILES string.

The target of test [1] is T1, LGC-41 (Caenorhabditis elegans, UniProt Q18518).
T1 construct: homomeric channel, cDNA from wild-type N2
T1 sequence (Q18518 26-540): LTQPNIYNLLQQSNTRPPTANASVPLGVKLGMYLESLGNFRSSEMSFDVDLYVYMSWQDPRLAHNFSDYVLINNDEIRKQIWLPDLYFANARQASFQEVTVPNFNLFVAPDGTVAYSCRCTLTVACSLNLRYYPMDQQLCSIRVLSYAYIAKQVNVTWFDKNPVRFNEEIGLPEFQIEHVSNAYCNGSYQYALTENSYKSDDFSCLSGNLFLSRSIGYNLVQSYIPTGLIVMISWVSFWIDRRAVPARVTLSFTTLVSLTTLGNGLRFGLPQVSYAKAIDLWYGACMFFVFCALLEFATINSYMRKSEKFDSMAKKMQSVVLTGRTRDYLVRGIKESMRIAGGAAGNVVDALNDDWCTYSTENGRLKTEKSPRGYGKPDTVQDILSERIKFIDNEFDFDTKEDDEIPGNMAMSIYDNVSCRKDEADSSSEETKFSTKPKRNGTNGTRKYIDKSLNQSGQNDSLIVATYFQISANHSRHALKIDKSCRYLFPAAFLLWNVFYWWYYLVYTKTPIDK
As to the kind of experiment: two-electrode voltage clamp in Xenopus oocytes, block of current induced by […] betaine. In kind it is cell-based. Background: Two-electrode voltage clamp is typically applied to oocytes expressing channels or transporters.

Test [2] deals with T1, LGC-41. In words: two-electrode voltage clamp in Xenopus oocytes, agonist dose-response. In kind it is cell-based.

In turn, `O=C1C[C@@H]2OCC=C3CN4CC[C@]56c7ccccc7N1[C@H]5[C@H]2[C@H]3C[C@H]46` [strychnine] returned an IC50 against LGC-41 [1] of 973 µM.

In the case of `C[N+](C)(C)CC(=O)O` [betaine], it took 211 µM to reach a half-maximal effect at LGC-41 [2] (EC50). In the case of `C=C(C)[C@@H]1[C@H]2OC(=O)[C@@H]1[C@]1(O)C[C@H]3OC34C(=O)O[C@H]2[C@@]41C.CC(C)(O)[C@@H]1[C@H]2OC(=O)[C@@H]1[C@]1(O)C[C@H]3OC34C(=O)O[C@H]2[C@@]41C` (stereo partly drawn) [picrotoxin], the half-maximal inhibitory concentration (IC50) against LGC-41 [1] was found to be 144 µM.
